Values joined by “and” are separate entries in the source; they are usually repeats but may differ in a detail not shown here. Equal values may be shown once. Inconclusive results and toxic doses are left out.

This experiment relates to P388 leukemia ip, CD2F1 mice, survival T/C. The experiment can be described thus: NCI In Vivo Anticancer Drug Screen. Data for tumor model P388 Leukemia (intraperitoneal) in CD2F1 (CDF1) mice. The note with it: endpoint: median survival time, higher = longer survival. Summed up:
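Mice carrying the transplanted tumor received test compound or vehicle. Survival was recorded in each group, and the value is the treated-group measurement divided by that of the vehicle-treated control group.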

Setting [1] is: dose: 100.0 mg/kg/injection, schedule: Q04DX003 (ip), vehicle: saline with Tween-80.
[2] abbreviates: dose: 200.0 mg/kg/injection, schedule: Q04DX003 (ip), vehicle: saline with Tween-80.
The mark [3] stands for this setting: dose: 400.0 mg/kg/injection, schedule: Q04DX003 (ip), vehicle: saline with Tween-80.
Setting [4] is: dose: 30.0 mg/kg/injection, schedule: Q01DX005 (ip), vehicle: Klucel (hydroxypropylcellulose) (HPC).
[5] abbreviates: dose: 60.0 mg/kg/injection, schedule: Q01DX005 (ip), vehicle: Klucel (hydroxypropylcellulose) (HPC).
Setting [6] is: dose: 50.0 mg/kg/injection, schedule: Q01DX005 (ip), vehicle: saline with Tween-80.
Where [7] appears, read: dose: 100.0 mg/kg/injection, schedule: Q01DX005 (ip), vehicle: saline with Tween-80.
Where [8] appears, read: dose: 200.0 mg/kg/injection, schedule: Q01DX005 (ip), vehicle: saline with Tween-80.
[9] abbreviates: dose: 50.0 mg/kg/injection, schedule: Q01DX005 (ip), vehicle: Klucel (hydroxypropylcellulose) (HPC).
Where [10] appears, read: dose: 100.0 mg/kg/injection, schedule: Q01DX005 (ip), vehicle: Klucel (hydroxypropylcellulose) (HPC).
[11] abbreviates: dose: 200.0 mg/kg/injection, schedule: Q01DX005 (ip), vehicle: Klucel (hydroxypropylcellulose) (HPC).

As to `C=COC(=O)C(Cc1ccc([N+](=O)[O-])cc1)NC(=O)OCc1ccccc1` (stereo not drawn), the T/C was 97 % of control (dose: 100.0 mg/kg/injection, schedule: Q04DX002 (ip), vehicle: Klucel (hydroxypropylcellulose) (HPC)); 100 % of control (dose: 200.0 mg/kg/injection, schedule: Q04DX002 (ip), vehicle: Klucel (hydroxypropylcellulose) (HPC)); 92 % of control (dose: 400.0 mg/kg/injection, schedule: Q04DX002 (ip), vehicle: Klucel (hydroxypropylcellulose) (HPC)).

For `CCN(C(=O)COc1ccc(Cl)cc1Cl)c1ccccc1C`, the T/C reads like this: under setting [1], 100 % of control; under setting [2], 100 % of control; under setting [3], 100 % of control.

With `CCCN=Cc1ccccc1O.CCCN=Cc1ccccc1O.[Cu]`, the T/C runs as follows: (dose: 3.75 mg/kg/injection, schedule: Q01DX005 (ip), vehicle: Klucel (hydroxypropylcellulose) (HPC)) 100 % of control; (dose: 7.5 mg/kg/injection, schedule: Q01DX005 (ip), vehicle: Klucel (hydroxypropylcellulose) (HPC)) 104 % of control; (dose: 15.0 mg/kg/injection, schedule: Q01DX005 (ip), vehicle: Klucel (hydroxypropylcellulose) (HPC)) 97 % of control; under setting [4], 92 % of control and 97 % of control; under setting [5], 108 % of control and 115 % of control.

In the case of `O=C1c2ccccc2C(=C2c3ccccc3C(=O)c3ccccc32)c2ccccc21`, the T/C was 99 % of control (dose: 50.0 mg/kg/injection, schedule: Q01DX009 (ip), vehicle: Klucel (hydroxypropylcellulose) (HPC)); 91 % of control (dose: 100.0 mg/kg/injection, schedule: Q01DX009 (ip), vehicle: Klucel (hydroxypropylcellulose) (HPC)); 92 % of control (dose: 200.0 mg/kg/injection, schedule: Q01DX009 (ip), vehicle: Klucel (hydroxypropylcellulose) (HPC)); 97 % of control (dose: 400.0 mg/kg/injection, schedule: Q01DX009 (ip), vehicle: Klucel (hydroxypropylcellulose) (HPC)).

As to `CC(=O)N1CCN(C(C)=O)N(C(C)=O)CCN1C(C)=O`, the T/C is, setting by setting: (dose: 100.0 mg/kg/injection, schedule: Q04DX003 (ip), vehicle: suspension in saline) 94 % of control; (dose: 200.0 mg/kg/injection, schedule: Q04DX003 (ip), vehicle: suspension in saline) 97 % of control; (dose: 400.0 mg/kg/injection, schedule: Q04DX003 (ip), vehicle: suspension in saline) 94 % of control.

On to `CC(=O)OC1C=CCC2C(=O)OC(=O)C12` (stereo not drawn), for which the T/C runs as follows: under setting [4], 103 % of control and 90 % of control; under setting [5], 100 % of control; (dose: 120.0 mg/kg/injection, schedule: Q01DX005 (ip), vehicle: Klucel (hydroxypropylcellulose) (HPC)) 105 % of control and 90 % of control.

On to `CC(=O)CC(=O)N1CCN(C(=O)CC(C)=O)CC1`, for which the T/C is 104 % of control (dose: 100.0 mg/kg/injection, schedule: Q04DX003 (ip), vehicle: saline); 100 % of control (dose: 200.0 mg/kg/injection, schedule: Q04DX003 (ip), vehicle: saline); 100 % of control (dose: 400.0 mg/kg/injection, schedule: Q04DX003 (ip), vehicle: saline).

With `O=[N+]([O-])c1cc2c([N+](=O)[O-])cccc2o1`, the T/C runs as follows: (dose: 100.0 mg/kg/injection, schedule: Q04DX003 (ip), vehicle: Klucel (hydroxypropylcellulose) (HPC)) 102 % of control; (dose: 200.0 mg/kg/injection, schedule: Q04DX003 (ip), vehicle: Klucel (hydroxypropylcellulose) (HPC)) 103 % of control.

For the molecule `c1ccc2c(c1)ccc1c2c[n+](CCCCCCCC[n+]2cc3c4ccccc4ccc3c3ccccc32)c2ccccc12`, the T/C is 172 % of control (dose: 0.78 mg/kg/injection, schedule: Q01DX009 (ip), vehicle: distilled water + Tween-80); 163 % of control (dose: 1.56 mg/kg/injection, schedule: Q01DX009 (ip), vehicle: distilled water + Tween-80); 204 % of control (dose: 3.13 mg/kg/injection, schedule: Q01DX009 (ip), vehicle: distilled water + Tween-80); 209 % of control (dose: 6.25 mg/kg/injection, schedule: Q01DX009 (ip), vehicle: distilled water + Tween-80).

In the case of `COc1ccc2[nH]c3c(c2c1)-c1ncncc1CC3`, the T/C under setting [6] was 100 % of control, the T/C under setting [7] is 97 % of control and the T/C under setting [8] is 106 % of control.

For `CC(C)=CC1C(C(=O)OCc2ccc(C)cc2C)C1(C)C` (stereo not drawn), the T/C by setting is: (dose: 100.0 mg/kg/injection, schedule: Q01DX009 (ip), vehicle: saline with Tween-80) 104 % of control; under setting [1], 100 % of control; (dose: 200.0 mg/kg/injection, schedule: Q01DX009 (ip), vehicle: saline with Tween-80) 109 % of control; under setting [2], 100 % of control; (dose: 400.0 mg/kg/injection, schedule: Q01DX009 (ip), vehicle: saline with Tween-80) 122 % of control; under setting [3], 100 % of control.

Turning to `O=CC(=C\c1ccco1)/C(C=O)=C\c1ccco1`, the T/C by setting is: under setting [6], 97 % of control; under setting [7], 112 % of control.

In the case of `CCN(Cc1cccc(S(=O)(=O)O)c1)c1ccc(C(=C2C=CC(=[N+](CC)Cc3cccc(S(=O)(=O)O)c3)C=C2)c2ccc(S(=O)(=O)O)cc2)cc1`, the T/C runs as follows: (dose: 50.0 mg/kg/injection, schedule: Q01DX005 (ip), vehicle: saline) 100 % of control; (dose: 100.0 mg/kg/injection, schedule: Q01DX005 (ip), vehicle: saline) 99 % of control; (dose: 200.0 mg/kg/injection, schedule: Q01DX005 (ip), vehicle: saline) 94 % of control.

As to `S=C(S)NC1CCN(Cc2ccccc2)CC1`, the T/C was 107 % of control under setting [9], 102 % of control under setting [10] and 96 % of control under setting [11].

Take `COc1cc2c(c(OC)c1OC)-c1cc3c(cc1C(OC1OC(COC(C)=O)C(OC(C)=O)C(OC(C)=O)C1OC(C)=O)C1COC(=O)C1C2)OCO3` (stereo not drawn): the T/C was 93 % of control (dose: 18.75 mg/kg/injection, schedule: Q01DX005 (ip), vehicle: Klucel (hydroxypropylcellulose) (HPC)); 93 % of control (dose: 37.5 mg/kg/injection, schedule: Q01DX005 (ip), vehicle: Klucel (hydroxypropylcellulose) (HPC)); 93 % of control (dose: 75.0 mg/kg/injection, schedule: Q01DX005 (ip), vehicle: Klucel (hydroxypropylcellulose) (HPC)); 88 % of control (dose: 150.0 mg/kg/injection, schedule: Q01DX005 (ip), vehicle: Klucel (hydroxypropylcellulose) (HPC)).

Take `Clc1cc(Cl)c2c(c1)[nH]c1nc3ccccc3nc12`: the T/C (dose: 6.25 mg/kg/injection, schedule: Q01DX005 (ip), vehicle: saline with Tween-80) was 101 % of control; the T/C (dose: 12.5 mg/kg/injection, schedule: Q01DX005 (ip), vehicle: saline with Tween-80) was 90 % of control; the T/C under setting [6] is 96 % of control; the T/C under setting [7] was 100 % of control; the T/C under setting [8] was 104 % of control.

Take `C(/Oc1ccc(-c2ccccc2)cc1)=C(/c1ccccc1)c1ccccc1-c1ccccc1`: the T/C is 101 % of control under setting [9], 99 % of control under setting [10] and 92 % of control under setting [11].

Take `O=C(CCCCCCCC(=O)Nc1ccc2c(=O)c3ccccc3[nH]c2c1)Nc1ccc2c(=O)c3ccccc3[nH]c2c1`: the T/C was 103 % of control under setting [6], 110 % of control under setting [7] and 92 % of control under setting [8].

As to `O=C1CCC2CN3CCc4c([nH]c5ccccc45)C3CC2C1` (stereo not drawn), the T/C (dose: 60.0 mg/kg/injection, schedule: Q01DX005 (ip), vehicle: saline with Tween-80) was 100 % of control and the T/C (dose: 120.0 mg/kg/injection, schedule: Q01DX005 (ip), vehicle: saline with Tween-80) was 106 % of control.

As to `Nc1ccc2ccc(NS(=O)(=O)N3CCCCC3)cc2c1`, where the note is “dose: 25.0 mg/kg/injection, schedule: Q01DX005 (ip), vehicle: saline with Tween-80”, the T/C is 108 % of control.

As for `NC(=S)c1cccc(C2Nc3ccccc3S2)c1` (stereo not drawn), the T/C by setting is: (dose: 100.0 mg/kg/injection, schedule: Q04DX002 (ip), vehicle: saline with Tween-80) 94 % of control; (dose: 200.0 mg/kg/injection, schedule: Q04DX002 (ip), vehicle: saline with Tween-80) 95 % of control; (dose: 400.0 mg/kg/injection, schedule: Q04DX002 (ip), vehicle: saline with Tween-80) 96 % of control.
